Entries after “also recorded” stand apart in the source; their conditions may differ.
Assays:
[1] = test system: Alkaline Phosphatase (ALP) activity in dermal papilla (DP) cells treated with FGF-5; assay: Dermal papilla alkaline phosphatase (DP-ALP) cell assay; type: cell-based, human; settings: for relative ALP activity of DP cells treated FGF-5: 0.005-0.5 mg/ml, GSK3 inhibitor IX + rhFGF-5 1 μg/mL, 3 days, absorbance 490 nm
Method: Dermal papilla cells were prepared according to the methods described in WO2013/105417, Briefly, hairs were pulled from the scalp of a healthy subject showing normal non-alopecia hair growth using tweezers. Hair follicles with dermal papilla were thus obtained at a rate of approximately one for every 100 hairs pulled. The hair follicles with dermal papilla were separated from the hair using tweezers and transferred into a saline for inspection under a microscope. Under a microscope, each dermal papilla was isolated from a respective hair follicle using tweezers and a scalpel. Approximately 2000 isolated dermal papilla cells were then transferred to a 35 mm cell culture dish together 1-2 ml of cell culture medium, after which time the cells were cultured at 37° C. to produce a primary cell culture of dermal papilla. The cell culture medium consisted of approximately 90% DMEM medium, 10% fetal bovine serum (final concentration: 10%), FGF2 (final, concentration: 10 ng/ml), and penicillin-streptornycin solution (final concentration: 1 μg/ml) for every 2 mL of medium. Cell culture conditions were maintained for more than 14 days until dermal papilla cells covered approximately 40% of the area of the 35 mm culture dish, at which time subcultures were performed. To prepare the subcultures, the cell culture medium was removed from the 35 mm culture dish and the adherent cells were washed once with 2 ml of saline (at room temperature). 1 ml Trypsin-EDTA solution (0.1% trypsin and 0.02% EDTA) was then added to the 35 mm culture dish and left to stand for 4 minutes at 37° C. Dissociated dermal papilla cells were then recovered from the 35 mm dish, and seeded to a new 100 mm dish, and cultured in media under the same conditions as for the primary cell culture described above.
When the dermal papilla cells covered approximately 70-80% of the area of each 100 mm culture dish, the sub-confluent cells were subcultured as before. The process was repeated until sufficient cells were obtained to screen compounds of interest.
Once sufficient DP cells were obtained, the cells were harvested to provide a cell suspension. To harvest the DP cells, the cell culture medium was removed from the culture dish, and the adherent cells were washed with saline at room temperature. Trypsin-EDTA solution was then added under conditions described supra to dissociate the cells from the cell culture dish. Approximately 5×10^5 of the dissociated cells were resuspended in 500 ml of assay medium containing 445 ml of DMEM medium, 50 ml of 10% fetal calf serum and 5 ml of antibiotic.
Aliquots of the cell suspension were transferred to the wells of cell culture dishes, and a single monoterpenoid listed in Example 1 e.g., (−)-4-terpinen-4-ol, (+)-4-terpinen-4-ol. (±)-4-terpinen-4-ol, α-terpineol, nonanal, linalyl acetate or piperitone, is added to each well at a concentration of 0.005 (mg/ml) or 0.01 (mg/ml) or 0.05 (mg/ml) or 0.1 (mg/ml) or 0.5 (mg/ml). Cell suspensions were transferred to wells of a further cell culture dish to which minoxidil was then added at a concentration of 0.005 (mg/ml) or 0.01 (mg/ml) or 0.05 (mg/ml) or 0.1 (mg/ml) or 0.5 (mg/ml). A Wnt/β-catenin pathway activation agent e.g., Wnt3a or GSK-3 Inhibitor IX, as added to each of the cell cultures to produce an “activated cell culture”. Control cell cultures containing the same monoterpenoid compound or minoxodil, but lacking the Wnt/β-cinenin pathway activation agent, were processed in parallel. These activated and control cell cultures were divided further into duplicate cell culture samples either lacking FGF-5 or to which recombinant human FGF-5 (rhFGF-5; 1 μg/mL)) was added.
The cell culture samples were each cultured at 37° C. for 3 days under atmosphere containing less than 5% CO2. […]

[2] = test system: FGF-5-dependent cell proliferation (FR-BaF3 cells expressing FGFR-1c); assay: FR-Ba/F3 cell proliferation/viability assay in the presence of FGF-5 (CCK-8); type: cell-based, murine
Method: Ba/F3 is a murine interleukin-3 (IL-3)-dependent pro-B cell line. […] That is, compounds were tested for their ability to modulate proliferation of FR-Ba/F3 cells in the presence of recombinant human FGF-5 (rhFGF-5) prepared according to Maeda et al., Nishi Nihon Hifuka, 69(1): 81-86, 2007.
Briefly, a suitable plasmid expressing FGFR-1c was introduced into […] ER-Ba/F3 cells, and the cells were maintained in RPMI RPMI-1640 with 10% FBS and 1.3×10^−17 M of murine IL-3 (Sigma, St Louis, […].) containing antibiotic G418 sulfate (Promega, Medison, Wis.). The inventors compared proliferation of FR/BaF3 cells in culture medium containing IL3 or FGF-5 and a different concentration in the range from 0.005% (w/v) to 1.0% (w/v) of each test compound listed in Example 1. The FR-BaF3 cells were seeded at 5×10^4/mL cells per well in 96-well, micro-culture plates (Falcon) in RPMI-1640 culture medium containing 10% fetal bovine serum, 5 μg/mL heparin. Recombinant human FGF-5 (rhFGF-5; 1 μg/mL) was added to one group, and IL-3 (0.2 ng/mL) (Sigma) was added to another group. The test compounds were then introduced to the micro-culture plate wells. Total volume of media per well was 100 μl. Control groups lacking test compound were also prepared for each of the IL-3-supplemented and FGF-5-supplemented samples. The plates were then incubated at 37° C. in 5% CO2 for 3 days.
After 3 days, colorimetric assays were performed using a Cell Counting Kit-8 (CCK-8) (Wako) according to the manufacturer's instructions to measure cell proliferation or suppression thereof by the test compound at varying concentrations. Briefly, 10 μl (1:2 dilution) of the CCK-8 reagent was added to each micro-culture plate well after which time the plates were incubated at […] for 3 hours. Absorbance at 450 nm was then measured using a microplate reader. Cell viability and proliferation for the IL-3-supplemented and FGF-5-supplemented groups was calculated as a measure of the optical density (OD) of cells treated with a test compound relative to the OD of the respective untreated controls, excluding the OD of blank controls (media only). Dose response curves were plotted and the respective inhibitory concentrations (IC50) for the test compounds were determined.

CC1=CC(=O)C(C(C)C)CC1 (centres unmarked) [Piperitone, 3-Methyl-6-(propan-2-yl)cyclohex-2-en-1-one]
relative ALP activity of DP cells treated FGF-5 [1]: increased relative ALP activity
relative ALP activity of DP cells treated FGF-5 ([1]; listed as piperitone): high alkaline phosphatase activity; also recorded: higher alkaline phosphatase activity in dermal papillae than a racemic mixture of terpinen-4-al or (+)-Terpinen-4-ol
FGF-5-inhibitory activity ranked from most active to least active by DP-ALP assay ([1]; rank order): Piperitone>(−)-terpinen-4-ol>(±)-Terpinen-4β-Terpineol> (+)-Terpinen-4-ol > Linalyl Acetate
FGF-5-inhibitory activity (in words) ([2]; judged from FR-BaF3 result): potent FGF-5-inhibitory active substances
FGF-5 Specificity IL-1/FGF-5 ([2]; ratio of the IC50 with IL-3 to the IC50 with FGF-5, BR: less reproducible): 25
